The values that follow come from paper PMC6614837 (Nucleic Acids Research, 2019).

Assay [1] deals with 3'-biotinylated minihelix (Mh; pMini3bpUG) (RNA, hairpin) GAUCUGAAUGCGGAAACGCGCCAC
Kind of assay: biolayer interferometry. The note with it: Mg2+ 10 mM, NH4+ 100 mM (ammonium acetate); 20 mM HEPES pH 7.4, DMSO, 30°C; highest concentration tested 1 mM.

For assay [2], the target named is T1, RNase P holoenzyme from Thermotoga maritima (Thermotoga maritima, UniProt Q9X1H4).
T1 construct: made in house
T1 sequence (Q9X1H4 1-117): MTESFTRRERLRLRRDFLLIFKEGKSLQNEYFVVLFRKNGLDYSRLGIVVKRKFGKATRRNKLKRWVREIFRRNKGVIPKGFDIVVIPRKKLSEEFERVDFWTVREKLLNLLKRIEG
Kind of assay: Real-time fluorescence-based RNase P activity assay with bipartite pre-tRNA substrate. Type of assay: biochemical. The following applies: fluorescent bipartite pre-tRNA substrate, holoenzyme 33 nM, 10% PEG 200 in place of DMSO. The protocol:
The reconstitution of the RNase P holoenzyme was performed as described in ([40],[19]). This protocol produces a homogeneous and functional ribozyme that can be crystallized by mixing P RNA and P protein in a 1:1.1 molar ratio in 1× TH buffer (33 mM Tris–HCl, 66 mM HEPES, pH 7.4) and 400 mM ammonium acetate (AmOAc). The mixture was heated to 95°C for 2 min in a water bath, then chilled on ice for 2 min, after which MgCl2 was added to a final concentration of 100 mM. […] This higher concentration was used in all experiments described herein. The holoenzyme was further incubated at 50°C for 10 min and 37°C for 40 min. The final concentration of holoenzyme was 333 nM (35.6 μg/ml of P RNA and 4.7 μg/ml of P protein).
The bipartite pre-tRNA substrate derived from pre-tRNA^Phe from T. maritima (Supplementary Figure S13) was designed for the ease of chemical synthesis and conceived from the fact that the anticodon loop is not required for RNase P recognition (Reiter et al.). As for the Mh substrate, fluorescent bipartite pre-tRNA was coupled to Black Hole Quencher 1 (BHQ1) at the 5′-end of the 5′ oligo, and to Alexa Fluor 488 at the 3′-end of the 3′ oligo (see Supplementary Table S1). The probes were purchased from Integrated DNA Technologies (IDT). A requested scale of 250 nmol yielded 27.4 nmol (0.36 mg) for the 5′ oligo and 3.8 nmol (50 μg) for the 3′ fluorescent oligo. Before use, the probes were diluted from a 100 μM stock (dissolved in water) and assembled by mixing and heating to 3.6 μM in activity buffer L (Tris–HCl pH 7.4 33 mM, HEPES 66 mM, 100 mM AmOAc and 10 mM MgCl2).
Reactions were performed in a total volume of 20 μl. Pipetting was done by hand using multichannel pipettes. First, an 18 μl reaction mixture containing 16.5 μl of activity buffer (H for Mh or L supplemented with 10% PEG 200 for bipartite pre-tRNA) and 270 nM (Mh) or 135 nM (bipartite pre-tRNA) (1.5 or 0.7 μl of the 3.6 μM stock) of the fluorescent substrate probe was pre-incubated on ice for at least 5 m in a black polystyrene 384-well microtiter microplate with a flat transparent bottom (Corning ref 3540). The holoenzyme was then added at a final concentration of 33 nM (2 μl of a 333 nM stock) in 1× TH buffer and mixed. Kinetic activity was monitored in a Synergy MX Multimode Detector (BioTek) at 37°C with rapid agitation. At least 20 readings were taken per well every 15 s. The probe was excited at 485 nm, and its emission was monitored at 535 nm with an integration time of 1 s. From the plots of relative fluorescent units (RFU) versus time, linear regression was used to determine the slopes in the linear portion of the curves, using at least 12 data points to obtain initial velocities. Non-linear fitting to obtain the Michaelis–Menten parameters was performed using GraphPad Prism® 6.01 software. […]

The target of assay [3] is T1, RNase P holoenzyme from Thermotoga maritima. In words: Real-time fluorescence-based (FRET) RNase P activity assay with minihelix (Mh) substrate. Type of assay: biochemical. The note with it: for IC50: fluorescent Mh substrate 270 nM, holoenzyme 33 nM, 10% DMSO, 37°C, 400 mM AmOAc, 100 mM MgCl2. The method in brief: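 Reconstituted holoenzyme (P RNA:P protein 1:1.1) at 33 nM with 270 nM minihelix labelled Alexa Fluor 488/BHQ quencher, in buffer H (pH 7.4, 400 mM AmOAc, 100 mM MgCl2), 10% DMSO, 37°C. Cleavage followed as fluorescence increase (ex 485, em 535 nm); initial velocities from linear slopes.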

The term IC50 denotes the concentration at which inhibition is half-maximal. The Ki is a measure of affinity in units of concentration, obtained from inhibition or displacement.

On to `O=C1C=CC(=O)c2c(O)cccc21` [Juglone, 5-hydroxy-1,4-naphthoquinone], for which the binding entry in assay [1] was “no”. Moreover, the IC50 in assay [2] came to 11.9 ± 1.7 µM; in assay [3], 12.8 ± 1.9 µM.

For `O=C1C=C2CC3(O)COc4c(ccc(O)c4O)C3=C2C=C1O` (stereo not shown) [Hematein, 3,4,6a,10-tetrahydroxy-6a,7-dihydroindeno[2,1-c]chromen-9(6H)-one], the binding entry in assay [1] is “no”. Besides, the IC50 in assay [2] turned out to be 87.9 ± 19.7 µM; in assay [3], 4.5 ± 0.9 µM.

On to `O=C1c2ccccc2C(=O)c2c(O)c(O)cc(O)c21` [Purpurin, 1,2,4-trihydroxyanthraquinone], for which the binding entry in assay [1] is on record as “no”. The IC50 was 13.1 ± 2.3 µM in assay [2] and 96.2 ± 21.7 µM in assay [3]. Besides, in assay [3] (competitive inhibition model, varying fluorescent Mh substrate), the Ki is 1.9 ± 0.4 µM.
